Entries after “also recorded” stand apart in the source; their conditions may differ.
How the values were obtained:
Alu RNA = test: Northern blot of Alu RNA levels in primary human RPE cells; assay type: cell-based
Text: FIG. 4 provides another example of the results of Northern blotting using an Alu-specific probe.
FIG. 45 is a Northern blot of biotin-UTP-labeled Alu RNA-transfected primary human RPE cells.
As presented in FIG. 3, primary human RPE cells treated with antisense oligonucleotides targeting DICER1 (Dcr as) (lane 3 (third lane from left)) show increased Alu RNA levels in the nuclear compartment compared to control antisense oligonucleotides (Ctr as) (lane 1 (leftmost)), monitored by Northern blotting using an Alu-specific probe.
For example, primary human RPE cells may be transfected with Alu RNA, with or without d4T. […] U6 (bottom row) is shown as loading control for nuclear fraction in FIG. 4.
And FIG. 45 presents a Northern blot of biotin-UTP-labeled Alu RNA-transfected primary human RPE cells.

Caspase-1 [1] = test: Western blot of Caspase-1 activation in primary human RPE cells transfected with Alu RNA; assay type: cell-based
Protocol: The bottom row is a vinculin loading control. […]
FIG. 7 is a Western blot showing that Alu RNA causes Caspase-1 maturation in primary human RPE cells at 24 hours after Alu administration (top, middle lane, lower band), which is blocked with co-treatment with azidothymidine (AZT), cordycepin, and abacavir (ABC) (50-100 uM; lanes 3-8 from left). The loading control vinculin is shown on the bottom.
FIG. 21 is a Western blot of Caspase-1 activation (p20 subunit) in primary human RPE cells transfected with Alu RNA±me-d4T.
FIG. 35 is a Western blot of Caspase-1 activation in human RPE cells transfected with Alu RNA±NRTIs (3TC, AZT, ABC).
The bottom row in FIG. 5 is a vinculin loading control. […]
Next, FIG. 7 provides evidence of AZT, cordycepin, and abacavir inhibition of inflammasome activation by Alu RNA. Indeed, Alu RNA causes NLRP3 inflammasome activation, which is marked by processing of the enzyme Caspase 1. FIG. 7 is a Western blot showing that Alu RNA causes Caspase-1 maturation in primary human RPE cells at 24 hours after Alu administration (top, lane 2, lower band), which is blocked with co-treatment with azidothymidine (AZT), cordycepin, and abacavir (ABC) (50-100 uM; Lanes 3-8). Again, the loading control vinculin is shown on the bottom.

Caspase-1 [2] = test: LPS/ATP-induced Caspase-1 activation in mouse bone marrow-derived macrophages (Western blot); assay type: cell-based
Text: To produce FIG. 9, cell culture supernatants were collected after (i) no treatment, (ii) LPS treatment, or (iii) LPS/ATP treatment of mouse bone marrow-derived macrophages and run on Western blotting probing with antibodies for Caspase-1 and IL-18.
Further, the present inventors also tested whether NRTIs blocked inflammasome activation by LPS/ATP, which is not known to signal via reverse transcriptase (Mariathasan et al., 2004; Mariathasan et al., 2006; Martinon et al., 2002).
FIGS. 38-41 illustrate that NRTIs block LPS/ATP-induced inflammasome activation. […] Representative images of n=3-4 experiments are provided in each of FIGS. 38-41.

NLRP3 mRNA = test: NLRP3 priming (mRNA) induced by Alu RNA in primary human RPE cells; assay type: cell-based; settings: Alu RNA transfection, 16 hours, d4T 100 uM, FIG. 13
Protocol: Indeed, as provided in the bar graph of FIG. 13, Alu RNA transfection increases NLRP3 mRNA levels in primary human RPE cells at 16 hours, an event termed “priming” (Y-axis) compared to mock (transfection reagent alone).

IL-1 beta mRNA = test: IL-1beta priming (mRNA) induced by Alu RNA in primary human RPE cells; assay type: cell-based; settings: Alu RNA transfection, 24 hours, d4T 100 uM, FIG. 14
Protocol: FIG. 14 illustrates, in graph format, that Alu RNA transfection increases IL-1 beta mRNA levels in primary human RPE cells at 24 hours, an event termed “priming”, (Y-axis) compared to mock (transfection reagent alone).
FIG. 14 illustrates that Alu RNA transfection increases IL-1 beta mRNA levels in primary human RPE cells at 24 hours, an event termed “priming”, (Y-axis) compared to mock (transfection reagent alone).

human P2X7 receptor = target: T1, human P2X7 receptor (Homo sapiens, UniProt Q99572); test: bzATP-induced YO-PRO-1 dye uptake in HEK293 cells stably expressing the human P2X7 receptor; assay type: cell-based
T1 construct: expressed in transfected cells
T1 sequence (Q99572 1-595): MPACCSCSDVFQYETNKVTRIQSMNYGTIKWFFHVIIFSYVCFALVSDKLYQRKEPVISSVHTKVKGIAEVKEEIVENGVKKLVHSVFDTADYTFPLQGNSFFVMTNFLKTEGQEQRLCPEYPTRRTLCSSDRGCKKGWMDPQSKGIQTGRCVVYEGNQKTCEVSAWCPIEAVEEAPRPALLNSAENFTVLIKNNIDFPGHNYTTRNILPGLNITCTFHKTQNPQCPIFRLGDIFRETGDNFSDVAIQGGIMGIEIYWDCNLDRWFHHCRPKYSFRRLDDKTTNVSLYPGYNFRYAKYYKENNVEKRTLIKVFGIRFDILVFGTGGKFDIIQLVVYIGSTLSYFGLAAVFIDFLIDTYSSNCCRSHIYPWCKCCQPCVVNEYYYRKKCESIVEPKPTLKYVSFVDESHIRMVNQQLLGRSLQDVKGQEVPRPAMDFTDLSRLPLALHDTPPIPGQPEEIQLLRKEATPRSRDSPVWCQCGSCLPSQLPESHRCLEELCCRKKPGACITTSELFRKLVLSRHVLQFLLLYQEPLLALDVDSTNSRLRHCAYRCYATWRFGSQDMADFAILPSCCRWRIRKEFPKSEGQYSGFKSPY
Text: Finally, P2X7 activation is associated with the formation of a large pore that is permeable to molecules of up to ˜1000 Da (Adinolfi et al., 2005; Cheewatrakoolpong et al., 2005; Surprenant et al., 1996).

mtDNA = mtDNA levels in primary mouse RPE cells by real-time quantitative PCR; assay type: cell-based
Text: The present disclosure further provides the results of additional experiments in FIG. 21-FIG. 23.

[3] = system: graft-versus-host disease; test: Graft-versus-host disease model, mice receiving allogeneic bone marrow and T cells; assay type: in vivo, mouse; settings: saline treated controls 0%
Text: To explore the potential therapeutic relevance of NRTIs beyond the Alu-induced model of geographic atrophy (GA), it was hypothesized that if NRTIs function as generic inflammasome inhibitors, then they might be broadly useful in other animal models of disease that are also driven by P2X7.

Cc1cn([C@H]2C=C[C@@H](CO)O2)c(=O)[nH]c1=O [d4T, 2′3′ dideoxythymidine]
Alu RNA levels (normalized to u6 RNA) (Alu RNA; biotin-UTP-labeled Alu RNA-transfected primary human RPE cells, FIG. 45): without reducing Alu RNA levels; also recorded: did not reduce Alu RNA levels | Alu RNA levels in nuclear fraction (Alu RNA; human RPE cells transfected with Alu RNA, 1, 4, or 24 hours after transfection, FIG. 4): does not change Alu RNA levels | Alu RNA levels in nuclear compartment (Alu RNA; primary human RPE cells treated with antisense oligonucleotides targeting DICER1, FIG. 3): does not reduce Alu RNA levels | Caspase-1 maturation caused by Alu RNA (Caspase-1 [1]; 24 hours after Alu administration, d4T 100 uM, FIG. 5): blocked | Caspase-1 activation / cleavage (p20) induced by Alu RNA (Caspase-1 [1]; concentration not given, FIG. 21, 34, 35, 51-53): block Caspase 1 activation by Alu RNA; also recorded: prevents Caspase 1 cleavage to its active 20 kDa form | Caspase-1 activation (active p20 band) induced by LPS/ATP (Caspase-1 [2]; mouse bone marrow-derived macrophages, supernatants, 100 uM, FIG. 9): inhibit | LPS/ATP-induced Caspase-1 maturation (Caspase-1 [2]; primary mouse bone marrow-derived macrophages, FIG. 38): inhibited; also recorded: blocked Caspase-1 | NLRP3 mRNA levels (priming), normalized to 18S RNA (NLRP3 mRNA): blunted | IL-1 beta mRNA levels (priming), normalized to 18S RNA (IL-1 beta mRNA): blunted | YO-PRO-1 iodide entry stimulated with bzATP (human P2X7 receptor; HEK293 human P2X7, pre-incubated 30 minutes, fluorescence 485/515 nm at t=30 minutes, FIG. 19): blocked YO-PRO-1 iodide entry | P2X7-mediated YO-PRO-1 dye uptake (fluorescence) induced by bzATP (human P2X7 receptor; bzATP 100 μM, 64 μM for both drugs, p<0.05, n=12, FIG. 43): inhibited | P2X7-dependent uptake of YO-PRO1 after addition of bzATP (human P2X7 receptor; human P2X7-overexpressing HEK293 stable cell line, concentration not given): inhibited P2X7-dependent uptake of the fluorescent dye YO-PRO1 | mtDNA levels (normalized to chromosomal DNA exon-intron junction sequence) (mtDNA): reduces mtDNA levels | Survival [3]: 30-70%

Reference: patent US10864212B2, “Compositions and methods for treating retinal degradation” (University of Kentucky Research Foundation, priority 2013, dated 2020)
